Series [1] concerns LRRK2 phosphorylation in brain tissues. Nature of the series: In vivo pharmacological experiment: LRRK2 phosphorylation in brain tissues of mice (western blot). Set-up: species or system C57BL/6J mice. To be noted: oral, 10 mg/kg, once, 1 hour after administration. On the technique in general: Immunoblotting shows a protein as a band on a membrane.
Method: Animals: C57BL/6J mice (male, 6-7 weeks old, weight: 20 g-22 g).
Grouping: Weigh all mice one day ahead of the experiment and divide them into 6 groups at random according to their weight, with 4 mice in each group. Exclude too heavy and too light mice, to ensure that average weight of all groups is the same.
The animals of each group are orally administered menstruum or the compound to be assayed in chronological order as shown in Table 4. One mouse is administered every 2 minutes. 1 hour after administration, all animals are successively euthanized with carbon dioxide in chronological order.
(1) After protein determination of brain tissue samples by BCA, apply 4% to 15% precast gel in an equal amount of protein samples.
(3) Perform protein electrophoresis at 200 V for 30 minutes. Then, use Midi PVDF Transfer Packs for membrane transfer for 7 minutes. Next, block them with TBS Blocker at room temperature for 1 hour.
(4) Prepare 5% milk with skimmed milk powder. Then, formulate antibodies P-LRRK2 (add 20 μl antibody to 5 mL 5% milk at 1:250), total-LRRK2 (add 10 μl antibody to 5 ml 5% skimmed milk at 1:500), p-Rabl0 (add 10 μl antibody to 5 mL 5% skimmed milk at 1:500) and p-actin (add 5 μl antibody to 5 mL 5% milk at 1:1000), and incubate the antibodies overnight. (5) Recycle the primary antibodies and rinse membranes with TBS for three times, 10 minutes each time. […]
Series [2] concerns the target T1, LRRK2 full-length human recombinant protein (Homo sapiens, UniProt Q5S007).
T1 construct: express LRRK2 full-length human recombinant protein in Sf9 cells of insects; GST; made in house; host or cells: Sf9 insect cells (baculovirus)
Nature of the series: In vitro evaluation of LRRK2 kinase inhibitory activity (HTRF / TR-FRET, LRRKtide). Type of series: biochemical. To be noted: 57 μM ATP, 0.4 uM Fluorescein-ERM (LRRKtide) peptide. The method, then: Experimental purpose: to detect transfer of energy signals (ratio of fluorescence signals: […]) after the phosphate group of phosphorylated Fluorescein-ERM (LRRKtide) peptide binds with LanthaScreen® Tb-pERM (pLRRKtide) antibody using homogeneous time-resolved fluorescence. Calculate IC50 for LRRK2 inhibition of the compound to be assayed.
1. Reaction solution: 10 mM 4-(2-hydroxyethyl) piperazine-1-ethanesulfonic acid (pH 7.5); 2 mM magnesium chloride; 0.5 mM glycol-bis-(2-aminoethylether)-N; 0.002% primary alcohol ethoxylate, 1 mM dithiothreitol and 1% DMSO;
2. Assay solution: TR-FRET Dilution Buffer;
3. LRRK2 human recombinant protein: use GST tag and baculovirus to express LRRK2 full-length human recombinant protein in Sf9 cells of insects;
4. Substrate: 0.4 uM Fluorescein-ERM (LRRKtide) peptide; 57 uM ATR
Resonance energy transfer of Fluorescein-ERM (LRRKtide) peptide and LanthaScreen® Tb-pERM (pLRRKtide) antibody between […].
1. Add DMSO solution of the compound to be assayed through the Echo550 non-contact nano-liter acoustic droplet ejection system;
2. Prepare mixed solution of enzyme and polypeptide with freshly prepared reaction solution. Add the mixed solution to the reaction cavity and warm it up at room temperature for 20 minutes in advance;
3. Add 57 μM ATP to initiate reaction, which lasts for 90 minutes at room temperature;
4. Add fluorescein-ERM (LRRKtide) peptide, LanthaScreen® Tb-pERM (pLRRKtide) antibody and 10 mM ethylene diamine tetraacetic acid to the assay system. The reaction lasts for 60 minutes at room temperature. Detect yellow light signals with Em/Ex 520/485.
5. Measure enzyme activity inhibition relative to DMSO blank control group according to the signal ratio, and calculate IC50 by fitting curves with the software XLfit5.
In general terms: Time-resolved FRET reads energy transfer from a long-lived donor to a nearby acceptor.

Series [3] concerns the target T2, LRRK2 (pSer935) (Homo sapiens, UniProt Q5S007).
T2 construct: expressed in transfected cells; host or cells: 293T cells
Nature of the series: In vitro evaluation of inhibitory activity for LRRK2 cell (pSer935), 293T cells transfected with pcmv-flag-lrrk2, MSD. The format is cell-based. The protocol: Take 293T cells out of liquid nitrogen and put them in water at 37° C. After ice has fully thawed, transfer the cells to 5 mL warm culture medium. Discard the supernatant through centrifugation, and culture the suspended cells in the culture medium as new cells.
Culture the 293T cells in the culture medium for two to three days.
Plant 1.4×10^6/293T cells on a culture plate. After two days of culturing, cells will multiply to 5×10^6, so planting cells on N+1 plates is enough for performing experiments on N 96-well plates.
1) Add 5 μl (0.5 μg/μl) pcmv-flag-Irrk2 to 145 μl DMEM culture medium, and mix them evenly with a straw;
6) Incubate the culture plate inside a humidified incubator with 5% carbon dioxide for 20 to 24 hours at 37° C.
3. (Day 3) Plant the 293T Cells on the 96-Well Plate;
3) Transfer 50 μl inhibitor containing culture medium to the cell culture plate;
4) Incubate the culture plate inside a humidified incubator with 5% carbon dioxide for 20 to 24 hours at 37° C.;
5) Extract 300 μl inhibitor containing culture medium with a dropper. Take 200 μl inhibitor containing culture medium and add 100 μl decomposer into the culture medium. After the plate has been sealed, it shall be shaken for 30 minutes at 4° C.
1) Add 2 μg/25 μl labeled antibody to the MSD plate to incubate for 2 hours; (50 μl 3.9 μg/μl Flag antibody+2.5 ml fetal bovine serum per plate). Maintain centrifugation for 10 s (1,000 rpm);
5) Transfer 12.5 μl lysis buffer and 12.5 μl cell lysis buffer to the MSD plate to incubate for 1 hour at room temperature;
7) Dilute ps935 antibody at 1:200, and add 25 μl antibody to incubate for 1 hour;
9) Dilute goat anti-rabbit antibody at 1:500, and add 25 μl antibody to the incubation plate to incubate for 1 hour;
13) After incubation for about 3 minutes, read data over 15 minutes.

Series [4] in a line: Pharmacokinetic evaluation in C57BL/6 mice, brain tissues and plasma. Type of series: in vivo. To be noted: oral, 5 mg/kg. The method, then:
Experimental purpose: to study pharmacokinetics of the compounds in vivo in C57BL/6 mice—drug concentration ratio between brain tissues and plasma
Experimental materials: C57BL/6 mice (male, 8 weeks old, weight: 25 g-30 g)
Assay Pharmacokinetic Features of Glires after they are Orally Administered the Compounds According to Standard Schemes.
In the experiment, the candidate compounds are prepared into 1 mg/mL mixed suspension, and mice are orally administered once. The menstruum for oral administration is 10% dimethyl sulfoxide (DMSO)/10% polysorbate/20% PEG-400 aqueous solution. This project uses male C57BL/6 mice, which are orally administered drugs at a dose of 5 mg/kg. Collect the whole brain 0.5, 1, 2 and 4 hours after the administration. Homogenize tissue samples with 15 mM [[…] (pH=7.4) buffer and methanol (volume ratio: 2:1)] at a ratio of 1:5 (w:v). Equally divide the homogenate into 2 samples: one for assay and the other for standby use. Besides, collect plasma 0.5, 1, 2 and 4 hours after administration. Centrifugate with 3,000 g relative centrifugal force within half an hour after collection at about 4° C. for 15 minutes to separate supernatant and obtain plasma samples. Store the plasma samples in polypropylene tubes; rapidly freeze them on dry ice and keep them at −80° C. till LC/MS/MS assay. Add internal standard precipitated protein of acetonitrile solution and fully mix them to extract supernatant samples via centrifugation. Quantitatively analyze plasma concentration by LC-MS/MS assay and calculate pharmacokinetic parameters such as maximal concentration (Cmax), half-life (T1/2), maximal time (Tmax), drug concentration in different tissues after administration (AUC0-last), and drug concentration ratio between brain tissues and plasma (B/P).

Where two headings read alike, the source gives them in different places.

T1 sequence (Q5S007 whole entry): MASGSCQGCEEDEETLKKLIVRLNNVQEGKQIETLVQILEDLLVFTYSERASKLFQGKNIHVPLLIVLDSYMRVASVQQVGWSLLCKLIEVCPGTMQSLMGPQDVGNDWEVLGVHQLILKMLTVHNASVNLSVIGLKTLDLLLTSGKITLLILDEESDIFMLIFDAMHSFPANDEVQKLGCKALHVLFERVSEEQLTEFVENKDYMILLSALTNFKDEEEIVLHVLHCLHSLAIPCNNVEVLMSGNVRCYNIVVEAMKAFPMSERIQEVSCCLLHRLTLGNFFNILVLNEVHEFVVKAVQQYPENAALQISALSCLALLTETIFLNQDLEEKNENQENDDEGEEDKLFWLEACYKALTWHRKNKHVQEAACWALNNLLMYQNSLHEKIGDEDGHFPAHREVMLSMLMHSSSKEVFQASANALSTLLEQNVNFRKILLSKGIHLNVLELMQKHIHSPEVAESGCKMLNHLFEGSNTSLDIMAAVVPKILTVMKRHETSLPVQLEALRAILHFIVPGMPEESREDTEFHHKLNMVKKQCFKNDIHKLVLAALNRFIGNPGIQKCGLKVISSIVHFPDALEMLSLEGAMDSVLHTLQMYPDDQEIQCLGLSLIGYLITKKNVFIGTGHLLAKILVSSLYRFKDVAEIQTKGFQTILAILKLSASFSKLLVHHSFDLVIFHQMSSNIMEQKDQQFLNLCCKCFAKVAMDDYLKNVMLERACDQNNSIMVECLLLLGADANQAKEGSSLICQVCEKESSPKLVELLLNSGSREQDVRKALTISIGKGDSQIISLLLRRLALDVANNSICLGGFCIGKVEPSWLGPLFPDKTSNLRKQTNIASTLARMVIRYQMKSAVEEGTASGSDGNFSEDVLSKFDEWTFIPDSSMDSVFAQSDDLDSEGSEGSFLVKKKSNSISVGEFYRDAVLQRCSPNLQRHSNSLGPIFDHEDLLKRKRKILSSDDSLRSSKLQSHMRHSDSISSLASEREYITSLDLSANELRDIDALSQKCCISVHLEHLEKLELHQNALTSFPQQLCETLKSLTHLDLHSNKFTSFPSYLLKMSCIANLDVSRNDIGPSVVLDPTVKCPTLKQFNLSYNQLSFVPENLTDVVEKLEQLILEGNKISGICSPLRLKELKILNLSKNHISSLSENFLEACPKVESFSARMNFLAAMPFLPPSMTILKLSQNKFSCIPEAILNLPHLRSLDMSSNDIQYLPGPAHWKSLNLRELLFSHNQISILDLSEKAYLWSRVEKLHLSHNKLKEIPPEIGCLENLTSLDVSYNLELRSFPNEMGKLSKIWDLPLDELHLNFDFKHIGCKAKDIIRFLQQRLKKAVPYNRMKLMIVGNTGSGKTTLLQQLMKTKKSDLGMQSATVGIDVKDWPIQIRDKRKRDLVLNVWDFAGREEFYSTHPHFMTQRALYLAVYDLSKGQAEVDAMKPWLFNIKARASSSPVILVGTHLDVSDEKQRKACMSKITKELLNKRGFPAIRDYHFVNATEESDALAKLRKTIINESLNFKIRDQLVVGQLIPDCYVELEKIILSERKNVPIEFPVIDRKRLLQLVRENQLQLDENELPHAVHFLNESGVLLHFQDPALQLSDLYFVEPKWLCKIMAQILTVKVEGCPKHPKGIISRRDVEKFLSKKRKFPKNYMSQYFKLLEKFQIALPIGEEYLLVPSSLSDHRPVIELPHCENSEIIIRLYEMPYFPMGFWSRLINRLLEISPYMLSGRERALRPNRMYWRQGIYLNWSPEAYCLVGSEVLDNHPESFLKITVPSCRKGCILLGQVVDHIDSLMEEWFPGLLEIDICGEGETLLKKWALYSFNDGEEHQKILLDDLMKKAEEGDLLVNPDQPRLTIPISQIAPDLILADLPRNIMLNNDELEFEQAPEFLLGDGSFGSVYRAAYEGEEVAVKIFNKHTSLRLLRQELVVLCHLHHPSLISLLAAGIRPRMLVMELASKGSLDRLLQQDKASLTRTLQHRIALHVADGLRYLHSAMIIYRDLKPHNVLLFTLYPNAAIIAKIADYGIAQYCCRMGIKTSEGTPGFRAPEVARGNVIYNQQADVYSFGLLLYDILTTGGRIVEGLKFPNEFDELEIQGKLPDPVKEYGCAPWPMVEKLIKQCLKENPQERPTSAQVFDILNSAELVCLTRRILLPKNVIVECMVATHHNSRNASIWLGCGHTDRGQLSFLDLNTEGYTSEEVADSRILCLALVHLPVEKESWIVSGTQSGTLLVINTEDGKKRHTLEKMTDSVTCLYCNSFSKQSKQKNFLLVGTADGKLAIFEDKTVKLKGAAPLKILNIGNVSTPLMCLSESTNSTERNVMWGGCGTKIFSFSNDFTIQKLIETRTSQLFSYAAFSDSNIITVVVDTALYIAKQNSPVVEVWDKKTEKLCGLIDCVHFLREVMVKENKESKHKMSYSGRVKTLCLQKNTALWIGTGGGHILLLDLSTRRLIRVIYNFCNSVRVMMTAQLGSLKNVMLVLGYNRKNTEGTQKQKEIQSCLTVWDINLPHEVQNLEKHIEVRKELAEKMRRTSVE
T2 sequence (Q5S007 whole entry): as above

For the compound `CCNc1nc(Nc2cc(F)c(C(=O)N3CCOCC3)cc2OC)ncc1C(F)(F)F` [GNE-7915], the “inhibition of LRRK2 phosphorylation in brain tissues” value in series [1] is “inhibits FRRK2 phosphorylation”.

For `COc1nc(N2CC3(CC(OC)C3)C2)ccc1Nc1ncc(Cl)c(Nc2ccccc2P(C)(C)=O)n1` [Embodiment 11], the results for the IC50 in series [2] and in series [3] were 5.3 nM and 4.5 nM, respectively. The Kp in series [4] (male, C57BL/6, mouse, brain/plasma, read-out: drug concentration ratio between brain tissues and plasma (B/P)) amounted to 0.41. Besides, the AUC(0-t) amounted to 0.597 µM·h in series [4] (male, C57BL/6, mouse, brain tissues, read-out: AUC0-last Brain Tissues) and 1.45 µM·h in series [4] (male, C57BL/6, mouse, plasma, read-out: AUC0-last Plasma). Besides, the half-life is 22.2 min in series [4] (male, C57BL/6, mouse, brain tissues, read-out: T1/2 Brain Tissues (converted)) and 28.2 min in series [4] (male, C57BL/6, mouse, plasma, read-out: T1/2 Plasma (converted)). The Tmax (as a rule, the time from dosing to the highest level) was determined as 30 min in series [4] (male, C57BL/6, mouse, brain tissues, read-out: Tmax Brain Tissues) and 30 min in series [4] (male, C57BL/6, mouse, plasma, read-out: Tmax Plasma). In addition, in series [4] (male, C57BL/6, mouse, plasma), the peak level (Cmax) was 1560 nM. Moreover, the “Cmax Brain Tissues” value in series [4] (brain tissues) turned out to be 698 nM.

These data come from patent publication US11046720B2, “Dimethylphosphine oxide compound” (GUIZHOU INOCHINI TECHNOLOGY CO., LTD, priority 2018, dated 2021).
